Results published in patent US5623080A, “Fluorone and pyronin Y derivatives” (Spectra Group Limited, Inc., priority 1995, dated 1997).
Each block holds one compound with its values, some of them ahead of it.

Experiments:
[1] = absorption wavelength (λmax) and extinction (ε); type: physicochemical; conditions: for λmax in EtOH (first value) / ε (first value) / λmax in EtOH / ε: Table 1, EtOH; for ε (first value): at first λmax, in M-1cm-1 (unit assumed); for ε: at second λmax; for absorption wavelength: comparison
[2] = double bond conversion (C=C% Conversion) by FTIR; conditions: (1:2:3), DIDMA, 30 sec
Protocol: (§1) To a resin formulation consisting of 15 parts urethane diacrylate, 15 parts DPHPA, 20 parts TPGDA and 40 parts TMPTA was added DIDMA, initiator and (4-octyloxyphenyl)phenyliodonium hexafluoroantimonate (OPPI). The samples were coated to a thickness of 15 microns and exposed to a 75 W tungsten halogen dental lamp (focused through an optical fiber) at a distance of 0.75 inch at which the Light intensity was about 0.40 W/cm^2. The molar ratios are indicative of the amounts of fluorone to onium salt to amine coinitiator. The double bond conversion was determined by FTIR spectroscopy. The pencil hardness of a given test sample is measured by holding a pencil at a 45° angle to the sample and drawing across it towards the person testing it. Using the pencils in an order from softest to hardest, the first pencil that scratches the surface is assigned as the pencil hardness of the sample. The pencil hardness scale is as follows from softest to hardest: 4B, 3B, 2B, B, HB, H, 2H, 3H, 4H, 6H. For instance, if a 2H pencil is the first pencil to scratch the surface then the pencil hardness is 2H.

pencil hardness = conditions: 0.05 wt. %
Protocol: as §1
At the extreme ends of the scale, it is impossible to determine the actual pencil hardness. […] Likewise, if the 4B pencil scratches the sample, the only assignment that can be made is <4B, unless it is a lot softer than 4B in which case a <<4B can be assigned. A pencil hardness of 4H is generally considered satisfactory. Pencil hardness data was greater than 6H after 30 seocnd exposure for all samples except for the control samples without amine (1:2:0). The controls were all less than 4B an 0.05 wt %, 0.10 wt %, and 0.15 wt %.
Photosensitive compositions were prepared from the resin formulation of Example 35 containing 1% NPG and 0.05% DIBF or 0.05% DIEF. The samples were exposed under the conditions shown in the following table and pencil hardness was measured.
Diphenyliodonium hexafluoroantimonate was added to DIBF samples.
Samples were also prepared using 1% DIDMA in addition to the fluorone for a 20:1 weight ratio.
Samples were also prepared from the same resin formulation containing 0.1% DIBF in addition to the coinitiator listed in the following Table 9 with the exposure condition and pencil hardness results shown.
Using the resin formulation of Example 36, photosensitive compositions were prepared using TIHF, DIDMA and OPPI at a concentration of 0.21% and in the molar ratios shown in Table 10 which follows. Exposure was conducted with the dental lamp at a distance of 1 inch from the sample to provide an intensity of about 0.26 W/cm^2. Molar ratios are fluorone:onium salt:amine.

depth of cure = experiment: depth of cure
Description: One of the advantages of the fluorone dye photoinitiators in this invention is the depth of the cure that is obtainable. This is in contrast to UV photoinitators that causes a "screening" effect which prevents the UV light from penetrating beyond a certain […] depth, usually several millimeters. By contrast, the fluorone dye bleaches as it photoinitiates and is concommitantly converted into a non-visible absorbing species thus allowing more visible light to penetrate which continues the cure. This cascading bleaching effect permits substantial depth of cure which can easily reach several inches.
An acrylate monomer mixture was composed of 15 parts urethane diacrylate, 20 parts TPGPA, 40 parts TMPTA and 15 parts DPHPA, and a 20 to 1 weight ratio of NPG coinitiator to DIEF or DIBF fluorone dye. For dye concentrations of 0.01, 0.05 and 0.1 weight, all the formulations cured to a depth of 3 cm in 30 seconds when exposed to a 350 watt tungsten halogen light which provides about 500 mw/cm^2 irradiance. When the irradiance was increased to about 2 watts/cm^2 cure speed was shortened to 5 seconds for the same depth.
An acrylate mixture was composed of 60% urethane diacrylate, 30% DPHPA, 10% BDDA, and 0.05 weight % of DIEF or DIBF fluorone dye with 2 weight % of DIDMA. The formulation cure to a depth greater than 1 cm in 10 seconds when exposed to a 75 watt tungsten halogen lamp which provided an irradiance of about 260 mw/cm^2.
An acrylate mixture was composed of 33% TMPTA, 33% DPHPA, 33% Epoxy acrylate, and 2% of DIDMA with either 0.01, 0.05 or 0.1 weight % of DIEF. All samples cured to a depth greater than 1 cm in 10 seconds when exposed to a 75 watt tungsten halogen.
An acrylate mixture was composed of 70% urethane diacrylate, 5% DPHPA, 25% BDDA, and 2% DIDMA with either 0.01, 0.03 or 0.1 weight % DIEF. The 0.01 and 0.03 samples cured after 2 passes through a 300 watt per inch medium pressure mercury arc lamp at a speed of 50 feet/minute to a depth greater than 3 mm. The 0.1 sample cured to a depth of greater than 1.5 mm.

fluorescence (λf, φf) = type: physicochemical; conditions: 10^-7 M (footnote c)
Description: In Table 2 below, the properties of the foregoing initiators are shown:
Entries in the table are in the solvents according to the following order.

[3] = oxidation and reduction potentials (Eox, Ered); type: physicochemical; conditions: in V (unit assumed)
Description: (§2) In Table 2 below, the properties of the foregoing initiators are shown: […]

pKa = type: physicochemical
Description: as §2

λmax in EtOH (first value) [1]: 470
ε (first value) [1]: 23,500
Compound: 5,7-diiodo-3-methoxy-6-fluorone [DIMF]

Compound: CCCCOc1ccc2c(C#N)c3cc(I)c(=O)c(I)c-3oc2c1 [Compound 7, 9-cyano-5,7-diiodo-3-butoxy-6-fluoorone]
λmax in EtOH (first value) [1]: 600

λmax in EtOH [1]: 576
λmax in EtOH (first value) [1]: 626
ε (first value) [1]: 51400
ε [1]: 24500 M⁻¹ cm⁻¹
Compound: N#Cc1c2cc(Br)c(=O)c(Br)c-2oc2c(Br)c(O)c(Br)cc12 [Compound 14, 9-cyano-3-hydroxy-2,4,5,7-tetrabromo-6-fluorone]

λmax in EtOH (first value) [1]: 630
ε (first value) [1]: 40,000
absorption wavelength [1]: 630 nm
λmax ([1]; in EtOH): 630 nm
Compound: CCCCCCCCc1cc2c(C#N)c3cc(I)c(=O)c(I)c-3oc2c(I)c1O [Compound 20, 9-cyano-3-hydroxy-4,5,7-triiodo-2-octyl-6-fluorone]

λmax in EtOH (first value) [1]: 532
ε (first value) [1]: 90800
Compound: CC(C)(C)c1cc2cc3cc(C(C)(C)C)c(=O)c(I)c-3oc2c(I)c1O [Compound 26, 2,7-di-t-butyl-4,5-diiodo-3-hydroxy-6-fluorone]

λmax in EtOH [1]: 582
λmax in EtOH (first value) [1]: 636
ε (first value) [1]: 68300
ε [1]: 33600 M⁻¹ cm⁻¹
Compound: CC(C)(C)c1cc2c(C#N)c3cc(C(C)(C)C)c(=O)c(I)c-3oc2c(I)c1O [Compound 27, 9-cyano-2,7-di-t-butyl-4,5-diiodo-3-hydroxy-6-fluorone]

λmax in EtOH (first value) [1]: 524
Compound: O=c1ccc2cc3ccc(O)cc3sc-2c1 [Compound 29, 3-hydroxy-6-thiafluorone]

λmax in EtOH (first value) [1]: 518
ε (first value) [1]: 101000
Compound: CC(C)(C)c1cc2cc3cc(C(C)(C)C)c(=O)cc-3oc2cc1O [Compound 30, 2,7-di-t-butyl-3-hydroxy-6-fluorone]

λmax in EtOH [1]: 564
λmax in EtOH (first value) [1]: 614
ε (first value) [1]: 47400
ε [1]: 23200 M⁻¹ cm⁻¹
Compound: CC(C)(C)c1cc2c(C#N)c3cc(C(C)(C)C)c(=O)cc-3oc2cc1O [Compound 31, 9-cyano-2,7-di-t-butyl-3-hydroxy-6-fluorone]

Compound: O=C(O)CCCc1cc2cc3ccc(O)cc3oc-2cc1=O [Compound 37a, 3-hydroxy-7-butyric acid-6-fluorone]
λmax in EtOH (first value) [1]: 512

λmax in EtOH (first value) [1]: 596
ε (first value) [1]: 74,000
Compound: N#Cc1c2ccc(=O)cc-2oc2cc(O)c(CCCC(=O)O)cc12 [Compound 37b, 9-cyano-3-hydroxy-7-butyric acid-6-fluorone]

λmax in EtOH (first value) [1]: 470
ε (first value) [1]: 21,100
Compound: CCOc1ccc2cc3cc(I)c(=O)c(I)c-3oc2c1 [DIEF, 5,7-diiodo-3-ethoxy-6-fluorone]
C=C% Conversion ([2]; 0.05 wt %): 40%
Pencil hardness (pencil hardness; 1% DIDMA, Dental Lamp, Air, 60 sec): 3B
Pencil hardness (pencil hardness; 1% DIDMA, Dental Lamp, No Air, 30 sec): 3B
Pencil hardness (pencil hardness; 1% DIDMA, Dental Lamp, No Air, 60 sec): 2B
Pencil hardness (pencil hardness; 1% DIDMA, Fusion (Q bulb), Air, 10 ft/min): 2B
Pencil hardness (pencil hardness; 1% DIDMA, Fusion (Q bulb), Air, 20 ft/min): > 4B
Pencil hardness (pencil hardness; 1% NPG, Dental Lamp, Air, 60 sec): 2B
Pencil hardness (pencil hardness; 1% NPG, Dental Lamp, No Air, 10 sec): < 4B
Pencil hardness (pencil hardness; 1% NPG, Dental Lamp, No Air, 30 sec): 2H
Pencil hardness (pencil hardness; 1% NPG, Dental Lamp, No Air, 60 sec): 3H
Pencil hardness (pencil hardness; 1% NPG, Fusion (Q bulb), Air, 10 ft/min): > 6H
Pencil hardness (pencil hardness; 1% NPG, Fusion (Q bulb), Air, 20 ft/min): 3H
Pencil hardness (pencil hardness; 1% NPG, Overhead Proj., Air, 60 sec): 3B
Pencil hardness (pencil hardness; 1% NPG, Overhead Proj., No Air, 60 sec): 3H
depth of cure (depth of cure; 0.01 and 0.03 weight %, 2 passes, 300 watt per inch medium pressure mercury arc lamp, 50 feet/minute, 2% DIDMA): greater than 3 mm
depth of cure (depth of cure; 0.1 weight %, 300 watt per inch medium pressure mercury arc lamp, 50 feet/minute, 2% DIDMA): greater than 1.5 mm
depth of cure (depth of cure; 10 seconds, 75 watt tungsten halogen, about 260 mw/cm^2, 0.05 weight % dye, 2 weight % DIDMA, 60% urethane diacrylate, 30% DPHPA, 10% BDDA): greater than 1 cm
depth of cure (depth of cure; 10 seconds, 75 watt tungsten halogen, 0.01, 0.05 or 0.1 weight %, 2% DIDMA, TMPTA/DPHPA/Epoxy acrylate): greater than 1 cm
depth of cure (depth of cure; 30 seconds, 350 watt tungsten halogen, about 500 mw/cm^2, dye 0.01, 0.05 and 0.1 weight, NPG 20 to 1): 3 cm
cure time for the same depth (3 cm) (depth of cure; about 2 watts/cm^2, NPG 20 to 1): 5 s

Compound: CCCCCCCCOc1ccc2cc3cc(I)c(=O)c(I)c-3oc2c1 [DIOF, 5,7-diiodo-3-octoxy-6-fluorone]
C=C% Conversion ([2]; 0.05 wt %): 40%
C=C% Conversion ([2]; 0.15 wt %): 40%
λmax in EtOH (first value) [1]: 470
ε (first value) [1]: 31,600

φf (fluorescence (λf, φf)): .95
Eox [3]: 1.34
Ered [3]: -.99
pKa (pKa): 5.97
λmax in EtOH (first value) [1]: 504
ε (first value) [1]: 24700
λmax ([1]; methanol, synthesis example): 500 nm
Compound: O=c1ccc2cc3ccc(O)cc3oc-2c1 [HF, 3-Hydroxy-6-fluorone]

λmax in EtOH (first value) [1]: 472
Compound: Cc1ccc(-n2c3cc(=N)ccc-3cc3ccc(N)cc32)cc1 [N.phi.CH3 NH2 /NH2 + H H H H H]

λmax in EtOH (first value) [1]: 472
Compound: C=CC(=O)OCCCCCCOc1ccc2cc3cc(I)c(=O)c(I)c-3oc2c1 [O O/O(CH2)6 OCOCH=CH2 H I H I H]

λmax in EtOH [1]: 548
λmax in EtOH (first value) [1]: 594
ε (first value) [1]: 50300
ε [1]: 24700 M⁻¹ cm⁻¹
Compound: N#Cc1c2ccc(=O)cc-2oc2cc(O)ccc12 [O O/O^- CN H H H H, 9-Cyano-3-hydroxy-6-fluorone]

λmax in EtOH (first value) [1]: 510
Compound: CCOC(=O)CCCc1cc2cc3ccc(=O)cc-3oc2cc1O [O O/O^- H H H H (CH2)3 COOEt]

λmax in EtOH (first value) [1]: 534
ε (first value) [1]: 92,600
Compound: CCCCCCCCc1cc2cc3cc(I)c(=O)c(I)c-3oc2c(I)c1O [O O/O^- H I H I (CH2)7 CH3, 3-hydroxy-4,5,7-triiodo-2-octyl-6-fluorone]

λmax in EtOH (first value) [1]: 610
Compound: N#Cc1c2ccc(=O)cc-2sc2cc(O)ccc12 [S O/O^- CN H H H H]

λmax in EtOH [1]: 586
λmax in EtOH (first value) [1]: 638
ε (first value) [1]: 80000
ε [1]: 35000 M⁻¹ cm⁻¹
absorption wavelength [1]: 636 nm
λmax ([1]; ethanol, synthesis example): 638 nm
Compound: N#Cc1c2cc(I)c(=O)c(I)c-2oc2c(I)c(O)c(I)cc12 [TIHCF, 9-cyano-3-hydroxy-2,4,5,7-tetraiodo-6-fluorone]
depth of cure results (depth of cure; other fluorone dyes): have also been observed
